Consider 11 compounds from ChEMBL document CHEMBL1155301, “Optimization of the aminopyridopyrazinones class of PDE5 inhibitors: discovery of 3-[(trans-4-hydroxycyclohexyl)amino]-7-(6-methoxypyridin-3-yl)-1-(2-propoxyethyl)pyrido[3,4-b]pyrazin-2(1H)-one” (Bioorg Med Chem Lett, 2009).

Structures are written as SMILES. pIC50: −log10 of the molar value. Values joined by “and” are separate entries in the source; they are usually repeats but may differ in a detail not shown here. Equal entries are not always repeated. Active and inactive are the calls of the source. No cut-off for these calls is given here.

The first series deals with cGMP-specific 3',5'-cyclic phosphodiesterase (Homo sapiens, UniProt O76074). Briefly: Inhibition of PDE5.
Details: not given
The term pIC50 denotes the IC50 on a negative log10 scale, so that one unit is a factor of ten. Low values mean a large IC50, high ones a small IC50. As for `CCCOCCn1c(=O)c(NCCOCC)nc2cnc(-c3ccc(OC)nc3)cc21`, the pIC50 is 9.96.
In the case of `CCCOCCn1c(=O)c(N[C@@H](C)CO)nc2ncc(-c3ccc(OC)nc3)cc21`, the pIC50 is 9.26.
Consider `CCCOCCn1c(=O)c(NCC(=O)O)nc2cnc(-c3ccc(OC)nc3)cc21`, for which the negative logarithm of the IC50 (pIC50) is 8.98.
For the compound `CCCOCCn1c(=O)c(NCC(=O)N(C)C)nc2cnc(-c3ccc(OC)nc3)cc21`, the pIC50 was 9.17.
Same read-out and setting: for `CCCOCCn1c(=O)c(NCC(=O)N2CCN(CC)CC2)nc2cnc(-c3ccc(OC)nc3)cc21` the value was 9.89; for `CCCOCCn1c(=O)c(NCC(=O)N2CCOCC2)nc2ncc(-c3ccc(OC)nc3)cc21`, 8.93.
Compound `CCCOCCn1c(=O)c(N[C@H](C)CO)nc2ncc(-c3ccc(OC)nc3)cc21` had a pIC50 of 9.06.
`CCCOCCn1c(=O)c(NCC(=O)O)nc2ncc(-c3ccc(OC)nc3)cc21`: the pIC50 was 8.53.
Take `CCCOCCn1c(=O)c(N[C@@H](C)CO)nc2cnc(-c3ccc(OC)nc3)cc21`: the pIC50 was 9.62.
On to `CCCOCCn1c(=O)c(NC[C@@H](C)O)nc2cnc(-c3ccc(OC)nc3)cc21`, for which the pIC50 was 10.00.
As for `CCCOCCn1c(=O)c(NCCO)nc2ncc(-c3ccc(OC)nc3)cc21`, the pIC50 was 8.93.

For the next series, the target named is Rod cGMP-specific 3',5'-cyclic phosphodiesterase subunit alpha (Homo sapiens, UniProt P16499). Briefly: Inhibition of PDE6.
Rod cGMP-specific 3',5'-cyclic phosphodiesterase subunit alpha, sequence (P16499 whole entry): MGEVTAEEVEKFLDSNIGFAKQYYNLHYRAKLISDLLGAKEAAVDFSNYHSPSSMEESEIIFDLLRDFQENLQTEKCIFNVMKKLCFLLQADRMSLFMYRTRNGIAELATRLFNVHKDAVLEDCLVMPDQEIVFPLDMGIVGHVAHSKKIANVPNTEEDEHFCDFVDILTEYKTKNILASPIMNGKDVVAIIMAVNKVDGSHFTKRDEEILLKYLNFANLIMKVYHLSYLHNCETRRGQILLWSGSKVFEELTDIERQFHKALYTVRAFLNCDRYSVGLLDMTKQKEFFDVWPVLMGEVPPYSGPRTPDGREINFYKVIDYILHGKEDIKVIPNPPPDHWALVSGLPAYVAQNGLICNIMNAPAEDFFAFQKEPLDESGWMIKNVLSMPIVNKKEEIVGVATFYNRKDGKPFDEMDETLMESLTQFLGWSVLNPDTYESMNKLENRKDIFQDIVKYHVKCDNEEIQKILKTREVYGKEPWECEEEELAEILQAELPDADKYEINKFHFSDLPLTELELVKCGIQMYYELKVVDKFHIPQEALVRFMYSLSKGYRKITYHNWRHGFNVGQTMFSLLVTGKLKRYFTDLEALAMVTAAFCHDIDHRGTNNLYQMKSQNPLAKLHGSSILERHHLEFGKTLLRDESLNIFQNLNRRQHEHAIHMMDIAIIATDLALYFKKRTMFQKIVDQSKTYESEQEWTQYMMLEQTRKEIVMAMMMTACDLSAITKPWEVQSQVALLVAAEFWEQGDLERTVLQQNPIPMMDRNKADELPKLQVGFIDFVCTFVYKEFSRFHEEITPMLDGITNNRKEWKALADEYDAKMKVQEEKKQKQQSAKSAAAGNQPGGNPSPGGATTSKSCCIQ
Details: not given
The compound `CCCOCCn1c(=O)c(NCCOCC)nc2cnc(-c3ccc(OC)nc3)cc21` showed a pIC50 of 8.03.
In turn, `CCCOCCn1c(=O)c(N[C@@H](C)CO)nc2ncc(-c3ccc(OC)nc3)cc21` had a pIC50 of 7.17.
Still for that read-out and setting: the value for `CCCOCCn1c(=O)c(NCC(=O)O)nc2cnc(-c3ccc(OC)nc3)cc21` was 7.34; that for `CCCOCCn1c(=O)c(NCC(=O)N(C)C)nc2cnc(-c3ccc(OC)nc3)cc21` was 7.06; that for `CCCOCCn1c(=O)c(NCC(=O)N2CCN(CC)CC2)nc2cnc(-c3ccc(OC)nc3)cc21` was 7.25.
Take `CCCOCCn1c(=O)c(NCC(=O)N2CCOCC2)nc2ncc(-c3ccc(OC)nc3)cc21`: the pIC50 was 6.94.
As for `CCCOCCn1c(=O)c(N[C@H](C)CO)nc2ncc(-c3ccc(OC)nc3)cc21`, the pIC50 was 7.20.
Regarding `CCCOCCn1c(=O)c(NCC(=O)O)nc2ncc(-c3ccc(OC)nc3)cc21`, the pIC50 was 6.24.
`CCCOCCn1c(=O)c(N[C@@H](C)CO)nc2cnc(-c3ccc(OC)nc3)cc21` showed a pIC50 of 7.75.
`CCCOCCn1c(=O)c(NC[C@@H](C)O)nc2cnc(-c3ccc(OC)nc3)cc21` had a negative-log IC50 (pIC50) of 7.82.
Compound `CCCOCCn1c(=O)c(NCCO)nc2ncc(-c3ccc(OC)nc3)cc21` had a pIC50 of 6.94.

The test system of a further series is Rattus norvegicus. Briefly: Antihypertensive activity against telemeterized rat at 10 mg/kg, po. The series is classed as functional, organism-based. Also on record: dose 10 mg/kg.
Details: not given
For the compound `CCCOCCn1c(=O)c(NCC(=O)O)nc2cnc(-c3ccc(OC)nc3)cc21`, the result was inactive.
Take `CCCOCCn1c(=O)c(NCC(=O)N(C)C)nc2cnc(-c3ccc(OC)nc3)cc21`: the result was Active.
Turning to `CCCOCCn1c(=O)c(NCCO)nc2ncc(-c3ccc(OC)nc3)cc21`, the outcome was Active.

System in the next series: not listed separately
The series can be described thus: Clearance in rat at 2 mg/kg, po and 2 mg/kg, iv. The note with it: in vivo. The class given is ADME, organism-based.
With `CCCOCCn1c(=O)c(NCC(=O)N(C)C)nc2cnc(-c3ccc(OC)nc3)cc21`, the clearance worked out at 27 mL/min/kg.
Regarding `CCCOCCn1c(=O)c(NCC(=O)N2CCN(CC)CC2)nc2cnc(-c3ccc(OC)nc3)cc21`, the clearance was determined as 28 mL/min/kg.
Still for that read-out and setting: the value for `CCCOCCn1c(=O)c(NCC(=O)N2CCOCC2)nc2ncc(-c3ccc(OC)nc3)cc21` was 18 mL/min/kg.

System in a further series: not listed separately
Briefly: Oral bioavailability in rat at 2 mg/kg. To be noted: in vivo. The series is classed as ADME, organism-based.
Broadly, the bioavailability is dose-corrected exposure relative to a reference, in per cent. Take `CCCOCCn1c(=O)c(NCC(=O)N(C)C)nc2cnc(-c3ccc(OC)nc3)cc21`: the bioavailability was found to be 52%.
`CCCOCCn1c(=O)c(NCC(=O)N2CCN(CC)CC2)nc2cnc(-c3ccc(OC)nc3)cc21` had a bioavailability of 61%.
On the same count and under the same terms, the value for `CCCOCCn1c(=O)c(NCC(=O)N2CCOCC2)nc2ncc(-c3ccc(OC)nc3)cc21` was 51%.

System in the next series: not listed separately
The series can be described thus: Volume of distribution in rat at 2 mg/kg, iv and 2 mg/kg, po. The class given is ADME, organism-based. To be noted: in vivo.
Take `CCCOCCn1c(=O)c(NCC(=O)N(C)C)nc2cnc(-c3ccc(OC)nc3)cc21`: the Vd was 0.9 L/kg.
On to `CCCOCCn1c(=O)c(NCC(=O)N2CCN(CC)CC2)nc2cnc(-c3ccc(OC)nc3)cc21`, for which the Vd worked out at 2.3 L/kg.
In turn, `CCCOCCn1c(=O)c(NCC(=O)N2CCOCC2)nc2ncc(-c3ccc(OC)nc3)cc21` came in with a Vd of 0.8 L/kg.

System in another series: not listed separately
The series can be described thus: Volume of distribution in dog at 2 mg/kg, iv and 2 mg/kg, po. The class given is ADME, organism-based, Canis lupus familiaris. The note with it: in vivo.
`CCCOCCn1c(=O)c(NCC(=O)N(C)C)nc2cnc(-c3ccc(OC)nc3)cc21` registered a Vd of 0.4 L/kg.
As to `CCCOCCn1c(=O)c(NCC(=O)N2CCN(CC)CC2)nc2cnc(-c3ccc(OC)nc3)cc21`, the Vd was determined as 8 L/kg.
For `CCCOCCn1c(=O)c(NCC(=O)N2CCOCC2)nc2ncc(-c3ccc(OC)nc3)cc21`, the Vd was 0.9 L/kg.

System in a further series: not listed separately
The series can be described thus: Clearance in dog at 2 mg/kg, po and 2 mg/kg, iv. The class given is ADME, organism-based, Canis lupus familiaris. To be noted: in vivo.
The compound `CCCOCCn1c(=O)c(NCC(=O)N(C)C)nc2cnc(-c3ccc(OC)nc3)cc21` showed a clearance of 1.8 mL/min/kg.
In the case of `CCCOCCn1c(=O)c(NCC(=O)N2CCN(CC)CC2)nc2cnc(-c3ccc(OC)nc3)cc21`, the clearance stood at 37 mL/min/kg.
On to `CCCOCCn1c(=O)c(NCC(=O)N2CCOCC2)nc2ncc(-c3ccc(OC)nc3)cc21`, for which the clearance amounted to 16.7 mL/min/kg.

System in a further series: not listed separately
Briefly: Half life in rat at 2 mg/kg, po and 2 mg/kg, iv. The series is classed as ADME, organism-based. To be noted: in vivo.
In general, half-life refers to the time in which the quantity being followed falls by half. Low readings indicate rapid decline, high ones slow decline. As for `CCCOCCn1c(=O)c(NCC(=O)N(C)C)nc2cnc(-c3ccc(OC)nc3)cc21`, the half-life is 0.6 h.
The same measure, in the same setting: for `CCCOCCn1c(=O)c(NCC(=O)N2CCN(CC)CC2)nc2cnc(-c3ccc(OC)nc3)cc21` the value was 1.4 h; for `CCCOCCn1c(=O)c(NCC(=O)N2CCOCC2)nc2ncc(-c3ccc(OC)nc3)cc21`, 0.8 h.

System in a further series: not listed separately
The series can be described thus: Half life in dog at 2 mg/kg, po and 2 mg/kg, iv. The series is classed as ADME, organism-based, Canis lupus familiaris. The note with it: in vivo.
`CCCOCCn1c(=O)c(NCC(=O)N(C)C)nc2cnc(-c3ccc(OC)nc3)cc21` showed a half-life of 4.3 h.
The same measure, in the same setting: for `CCCOCCn1c(=O)c(NCC(=O)N2CCN(CC)CC2)nc2cnc(-c3ccc(OC)nc3)cc21` the value was 3.5 h; for `CCCOCCn1c(=O)c(NCC(=O)N2CCOCC2)nc2ncc(-c3ccc(OC)nc3)cc21`, 0.9 h.

System in a further series: not listed separately
Briefly: Oral bioavailability in dog at 2 mg/kg. The series is classed as ADME, organism-based, Canis lupus familiaris. The note with it: in vivo.
For `CCCOCCn1c(=O)c(NCC(=O)N(C)C)nc2cnc(-c3ccc(OC)nc3)cc21`, the bioavailability stood at 30%.
`CCCOCCn1c(=O)c(NCC(=O)N2CCN(CC)CC2)nc2cnc(-c3ccc(OC)nc3)cc21`: the bioavailability worked out at 15%.
Still for that read-out and setting: for `CCCOCCn1c(=O)c(NCC(=O)N2CCOCC2)nc2ncc(-c3ccc(OC)nc3)cc21` the value was 32%.

System in another series: not listed separately
The series can be described thus: Selectivity ratio of IC50 for PDE5 to IC50 for PDE6.
Details: not given
`CCCOCCn1c(=O)c(NCC(=O)O)nc2cnc(-c3ccc(OC)nc3)cc21`: the Ratio IC50 was 43 and 30.
Consider `CCCOCCn1c(=O)c(NCC(=O)N(C)C)nc2cnc(-c3ccc(OC)nc3)cc21`, for which the Ratio IC50 was 97.
Regarding `CCCOCCn1c(=O)c(NCCO)nc2ncc(-c3ccc(OC)nc3)cc21`, the Ratio IC50 is 97.
